Results as given in patent US20150004134A1, “TREATMENT OF CANCER WITH HETEROCYCLIC INHIBITORS OF GLUTAMINASE” (Calithera Biosciences, Inc., priority 2012, published 2015).

The compounds below were run on P493-6 (myc "on") cells (assay: Cell Proliferation Assay). Settings: P493-6, 72 h, read-out: Cell prolif P493 72 h IC50, P493-6 cells, 72 h.
Assay type: cell-based
How it was run: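 Read-out: either Cell Titer Glo or Guava Viacount flow analysis after 72 h compound treatment of myc-on P493-6 cells (10,000/well, RPMI with 10% FBS) at 37 °C. DMSO held at 0.5% final.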

Structure (SMILES)	IC50
CC(C)(C)OC(=O)NCc1ccccc1CC(=O)Nc1nnc(CCCCc2ccc(NC(=O)Cc3ccccc3)nn2)s1 [Compound 464]	59 nM
CCNC(=O)Nc1ccc(CCCCc2nnc(NC(=O)Cc3cccc(CNC(=O)OC(C)(C)C)c3)s2)nn1 [Compound 420]	70 nM
CC(C(=O)Nc1ccc(CCCCc2nnc(NC(=O)C(O)c3cccc(Cl)c3)s2)nn1)c1ccccc1 (stereo not drawn) [Compound 468]	270 nM
Cc1ccccc1CC(=O)Nc1nnc(CCCCc2ccc(NC(=O)Cc3ccccc3Cl)nn2)s1 [Compound 535]	90 nM
O=C(Cc1ccccc1)Nc1ccc(CCCCc2nnc(NC(=O)Cc3cccc(CNC(=O)C(F)(F)F)c3)s2)nn1 [Compound 458]	13 nM
O=C(Cc1ccccc1)Nc1ccc(CCCCc2nnc(NC(=O)Cc3cccc4c3CNC4)s2)nn1 [Compound 650]	140 nM
CC(C(=O)Nc1ccc(CCCCc2nnc(NC(=O)Cc3ccccc3)s2)nn1)c1ccc(F)c(CN(C)C(=O)OC(C)(C)C)c1 (stereo not drawn) [Compound 599]	39 nM
COC(C(=O)Nc1ccc(CCCCc2nnc(NC(=O)Cc3cccc(CNC(=O)OC(C)(C)C)c3)s2)nn1)c1ccccc1 (stereo not drawn) [Compound 508]	20 nM
COC(C(=O)Nc1nnc(CCCCc2ccc(NC(=O)Cc3cccc(CNC(=O)CC(O)C(F)(F)F)c3)nn2)s1)c1ccccc1 (stereo not drawn) [Compound 604]	42 nM
CC(C)(C)OC(=O)NCc1cccc(CC(=O)Nc2nnc(CCCCc3ccc(NC(=O)C(O)(CO)c4ccccc4)nn3)s2)c1 (stereo not drawn) [Compound 507]	41 nM
CNCc1cccc(CC(=O)Nc2nnc(CCCCc3nnc(NC(=O)Cc4ccccc4)s3)s2)c1 [Compound 393]	900 nM
CC(N)c1cccc(CC(=O)Nc2ccc(CCCCc3nnc(NC(=O)Cc4ccccc4)s3)nn2)c1 (stereo not drawn) [Compound 560]	37 nM
CCCC(=O)OCN(C(=O)Cc1cccc(CC(=O)N2CCC(F)(F)CC2)c1)c1nnc(CCCCc2ccc(NC(=O)Cc3ccccc3)nn2)s1 [Compound 570]	9 nM
CC(C)NC(=O)OC(C)c1cccc(CC(=O)Nc2nnc(CCCCc3ccc(NC(=O)Cc4ccccc4)nn3)s2)c1 (stereo not drawn) [Compound 598]	4 nM
CC(NC(=O)OC(C)(C)C)c1cc(CC(=O)Nc2nnc(CCCCc3ccc(NC(=O)Cc4ccccc4)nn3)s2)ccc1F (stereo not drawn) [Compound 653]	10 nM
CC(NC(=O)OC(C)(C)C)c1cccc(CC(=O)Nc2ccc(CCCCc3nnc(NC(=O)C(C)c4ccccc4)s3)nn2)c1 (stereo not drawn) [Compound 603]	23 nM
COc1cc(CC(=O)Nc2nnc(CCCCc3ccc(NC(=O)Cc4ccccc4)nn3)s2)ccc1F [Compound 515]	59 nM
CN(C)CC(=O)Nc1ccc(CCCCc2nnc(NC(=O)Cc3cccc(CNC(=O)OC(C)(C)C)c3)s2)nn1 [Compound 478]	46 nM
CC(C)(C)OC(=O)NCc1cccc(CC(=O)Nc2nnc(CCCCc3ccc(NC(=O)C(O)c4cccc(Cl)c4)nn3)s2)c1 (stereo not drawn) [Compound 422]	6 nM

Same assay, conditions: P493-6, 72 h, read-out: Cell prolif P493 72 h IC50, P493 cells, 72 h

Structure (SMILES)	IC50
Nc1ccc(CCCCc2nnc(NC(=O)Cc3ccccc3)s2)nn1 [Compound 348, N-(5-(4-(6-aminopyridazin-3-yl)butyl)-1,3,4-thiadiazol-2-yl)-2-phenylacetamide]	1700 nM
COC(=O)c1cccc(NC(=O)Nc2nnc(CCSCCc3nnc(NC(=O)Nc4cccc(C(=O)OC)c4)s3)s2)c1 [Compound 31]	4300 nM
COC(=O)Nc1nnc(CCCCc2nnc(NC(=O)Cc3ccccc3)s2)s1 [Compound 387]	2300 nM
O=C(Nc1nnc(CCSCCc2nnc(NC(=O)C3CCCO3)s2)s1)C1CCCO1 (stereo not drawn) [Compound 39]	4500 nM
O=C(Nc1nnc(CCCCc2nnc(NC(=O)C3CC4CCC3C4)s2)s1)C1CC2CCC1C2 (stereo not drawn) [Compound 55]	3900 nM
O=C(Cc1cccc(OCCN2CCOCC2)c1)Nc1nnc(CCSCCc2nnc(NC(=O)Cc3cccc(OCCN4CCOCC4)c3)s2)s1 [Compound 240]	1300 nM
O=C(CC1CC1)Nc1nnc(CCSCCc2nnc(NC(=O)CC3CC3)s2)s1 [Compound 83]	1400 nM
CC(CCc1nnc(NC(=O)Cc2ccccc2)s1)CCc1nnc(NC(=O)Cc2ccccc2)s1 [Compound 9]	> 50000 nM
O=C(Cc1cccc(CN2CCNCC2)c1)Nc1nnc(CCCCc2nnc(NC(=O)Cc3cccc(CN4CCNCC4)c3)s2)s1 [Compound 286]	6400 nM
O=C(Nc1nnc(CCSCCc2nnc(NC(=O)[C@@H](O)c3ccccc3)s2)s1)[C@@H](O)c1ccccc1 [Compound 93]	2000 nM
CS(=O)(=O)c1cccc(CC(=O)Nc2nnc(CCSCCc3nnc(NC(=O)Cc4cccc(S(C)(=O)=O)c4)s3)s2)c1 [Compound 158]	8100 nM
CC(C)(C)OC(=O)N[C@@H](C(=O)Nc1nnc(CCSCCc2nnc(NC(=O)[C@H](NC(=O)OC(C)(C)C)c3ccccc3)s2)s1)c1ccccc1 [Compound 46]	16000 nM
O=C(Cc1ccccc1)Nc1nnc(CCSCCc2nnc(NC(=O)[C@@H]3CCCN3C(=O)C(F)(F)F)s2)s1 [Compound 35]	3800 nM
O=C(Nc1nnc(CCCCc2nnc(NC(=O)C(O)c3cccc(F)c3F)s2)s1)C(O)c1cccc(F)c1F (stereo not drawn) [Compound 211]	1000 nM
O=C(Nc1nnc(CCCCc2nnc(NC(=O)C3CC(O)c4ccccc43)s2)s1)C1CC(O)c2ccccc21 (stereo not drawn) [Compound 94]	470 nM
N#Cc1ccc(CC(=O)Nc2nnc(CCSCCc3nnc(NC(=O)Cc4ccc(C#N)cc4)s3)s2)cc1 [Compound 216]	> 50000 nM
Cc1nccn1Cc1cccc(CC(=O)Nc2nnc(CCCCc3nnc(NC(=O)Cc4cccc(Cn5ccnc5C)c4)s3)s2)c1 [Compound 296]	170 nM
O=C(Cc1ccccc1)Nc1nnc(CCCCc2nnc(NC(=O)Cc3cccc(Cn4cccn4)c3)s2)s1 [Compound 392]	72 nM
O=C(Cc1c(F)cccc1F)Nc1nnc(CCCCc2nnc(NC(=O)Cc3c(F)cccc3F)s2)s1 [Compound 293]	40 nM
CC(C(=O)Nc1nnc(CCSCCc2nnc(NC(=O)C(C)c3ccccc3)s2)s1)c1ccccc1 (stereo not drawn) [Compound 19]	1700 nM
O=C(Cc1ccccc1)Nc1nnc(CCCCc2nnc(NC(=O)Cc3ccc(F)c(O)c3F)s2)s1 [Compound 346]	87 nM
COc1ccccc1CC(=O)Nc1nnc(CCSCCc2nnc(NC(=O)C(CO)c3ccccc3OC)s2)s1 (stereo not drawn) [Compound 246]	1600 nM
CC(C)(C)OC(=O)N1CCN(C(C(=O)Nc2nnc(CCCCc3nnc(NC(=O)C(c4ccccc4)N4CCN(C(=O)OC(C)(C)C)CC4)s3)s2)c2ccccc2)CC1 (stereo not drawn) [Compound 63]	2600 nM

Structure (SMILES)	IC50
CN(C)c1ccc(CC(=O)Nc2nnc(CCSCCc3nnc(NC(=O)Cc4ccc(N(C)C)cc4)s3)s2)cc1 [Compound 162]	150 nM
O=C(Nc1nnc(CCCCCc2nnc(NC(=O)C(CO)c3ccccc3)s2)s1)C(CO)c1ccccc1 (stereo not drawn) [Compound 30]	2500 nM
O=C(Cc1ccccc1)Nc1nnc(CCCCc2nnc(NC(=O)Cc3cccnc3)s2)s1 [Compound 309]	180 nM
O=C(Nc1nnc(CCCCc2nnc(NC(=O)C(OCCO)c3ccccc3)s2)s1)C(OCCO)c1ccccc1 (stereo not drawn) [Compound 252]	6300 nM
O=C(Nc1nnc(CCSCCc2nnc(NC(=O)C3Cc4cc(Br)ccc4O3)s2)s1)C1Cc2cc(Br)ccc2O1 (stereo not drawn) [Compound 118]	36000 nM
CC[C@](O)(C(=O)Nc1nnc(CCSCCc2nnc(NC(=O)[C@@](O)(CC)c3ccccc3)s2)s1)c1ccccc1 [Compound 141]	4300 nM
O=C(CCN1CCOCC1)OC(C(=O)Nc1nnc(CCCCc2nnc(NC(=O)C(OC(=O)CCN3CCOCC3)c3cccc(Cl)c3)s2)s1)c1cccc(Cl)c1 (stereo not drawn) [Compound 332]	87 nM
O=C(Nc1nnc(CCCCc2nnc(NC(=O)C3COc4ccccc43)s2)s1)C1COc2ccccc21 (stereo not drawn) [Compound 135]	490 nM
O=C(Nc1nnc(CCCCc2nnc(NC(=O)[C@@H](O)c3ccccc3)s2)s1)[C@@H](O)c1ccccc1 [Compound 92]	470 nM
CC(=O)OCC(C(=O)Nc1nnc(CCSCCc2nnc(NC(=O)C(COC(C)=O)c3ccccc3)s2)s1)c1ccccc1 (stereo not drawn) [Compound 14]	1800 nM
COC(C(=O)Nc1nnc(CCSCCc2nnc(NC(=O)C(OC)c3ccccc3)s2)s1)c1ccccc1 (stereo not drawn) [Compound 67]	1800 nM
O=C(Cc1ccc2ncccc2c1)Nc1nnc(CCCCc2nnc(NC(=O)Cc3ccc4ncccc4c3)s2)s1 [Compound 269]	520 nM
O=C(Nc1nnc(CCCCc2nnc(NC(=O)C(O)c3cccc(Br)c3)s2)s1)C(O)c1cccc(Br)c1 (stereo not drawn) [Compound 288]	28 nM
O=C(Nc1nnc(CCSCCc2nnc(NC(=O)C(c3ccccc3)N3CCNCC3)s2)s1)C(c1ccccc1)N1CCNCC1 (stereo not drawn) [Compound 79]	2000 nM
COCOCCOC(C(=O)Nc1nnc(CCCCc2nnc(NC(=O)C(OCCOCOC)c3ccccc3)s2)s1)c1ccccc1 (stereo not drawn) [Compound 251]	2800 nM
O=C(Cc1ccncc1)Nc1nnc(CCSCCc2nnc(NC(=O)Cc3ccncc3)s2)s1 [Compound 361]	> 20000 nM
O=C(OCC(C(=O)Nc1nnc(CCCCc2nnc(NC(=O)C(COC(=O)C3CCNCC3)c3ccccc3)s2)s1)c1ccccc1)C1CCNCC1 (stereo not drawn) [Compound 302]	870 nM
CC(C)COC(=O)Nc1nnc(CCCCc2nnc(NC(=O)Cc3ccccc3)s2)s1 [Compound 370]	700 nM
O=C(Cc1ccccc1)Nc1ccc(CCCCc2nnc(NC(=O)C(OC(=O)CCN3CCOCC3)c3cccc(Cl)c3)s2)nn1 (stereo not drawn) [Compound 389]	32 nM
O=C(Cc1cccc(-n2cccn2)c1)Nc1nnc(CCCCc2nnc(NC(=O)Cc3cccc(-n4cccn4)c3)s2)s1 [Compound 285]	140 nM
COC(=O)C(C(=O)Nc1nnc(CCSCCc2nnc(NC(=O)C(C(=O)OC)c3ccccc3)s2)s1)c1ccccc1 (stereo not drawn) [Compound 234]	2500 nM
O=C(Nc1nnc(CCSCCc2nnc(NC(=O)C3CC4CCC3C4)s2)s1)C1CC2CCC1C2 (stereo not drawn) [Compound 38]	3200 nM

Same assay, conditions: P493-6, read-out: Cell prolif P493 72 h IC50; P493 cells, 72 h

Structure (SMILES)	IC50
COc1ccc(C(=O)Nc2nnc(CCSCCc3nnc(NC(=O)c4ccc(OC)cc4)s3)s2)cc1 [Compound 3]	> 50000 nM
CC(=O)Nc1nnc(CCSCCc2nnc(NC(C)=O)s2)s1 [Compound 13]	12000 nM
